Results from patent US8389523B2, “Substituted quinoxaline and an agrochemical composition thereof” (Kumiai Chemical Industry Co., Ltd., priority 2007, dated 2013).

Experiments:
Type in all cases: in vivo
Parameters in all cases: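 grade 0 to 5 of growth suppression where 5 is 90% or more and 0 below 10%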
[1] = system: Monochoria vaginalis (Burm. f.) Presl var. plantaginea (Roxb.) Solms-Laub.; assay: Herbicidal effects in paddy field soil treatment (Test Example 1); settings: paddy field soil treatment; 1000 g of the active ingredient per hectare; wettable powder added dropwise on water surface; 21st day after treatment
Procedure, shortened: (§1)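 Application rate 1000 g a.i./ha, delivered as water-diluted wettable powder onto flooded (3 cm) paddy soil one day after sowing. Plants kept in a greenhouse and evaluated for herbicidal effect on day 21 post-treatment.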

[2] = system: Scirpus juncoides Roxb. var. ohwianus. T. Koyama; assay: as above; settings: paddy field soil treatment; 1000 g of the active ingredient per hectare; wettable powder added dropwise on water surface; 21st day after treatment
Procedure, shortened: as §1

[3] = system: Echinochloa oryzicola Vasing; assay: as above; settings: paddy field soil treatment; 1000 g of the active ingredient per hectare; wettable powder added dropwise on water surface; 21st day after treatment
Procedure, shortened: as §1

[4] = system: Abutilon theophrasti medicus; assay: Herbicidal effects in upland field soil treatment (Test Example 2); settings: 1000 g active ingredient per hectare, 21st day after treatment, criteria of Table 138
Procedure, shortened: (§2)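 Herbicidal effect graded 21 days after treatment, plants kept in greenhouse. Treatment was a soil-surface spray of wettable powder in water, 1000 g a.i./ha in 1000 L/ha, applied after sowing and covering seeds.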

Amaranthus viridis L. [5] = assay: as above; settings: 1000 g active ingredient per hectare, 21st day after treatment, criteria of Table 138
Procedure, shortened: as §2

[6] = system: Abutilon theophrasti medicus; assay: Herbicidal effects in upland field foliar treatment (Test Example 3); settings: 1000 g of the active ingredient per hectare, 14th day after the treatment, wettable powder, criteria of Table 138
Procedure, shortened: (§3)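 Foliar spray of diluted wettable powder, 1000 g a.i./ha in 1000 L/ha, onto two-week-old greenhouse-grown seedlings in upland field soil. Plants kept in the greenhouse, with effect rated on a criteria scale at day 14.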

Amaranthus viridis L. [7] = assay: as above; settings: 1000 g of the active ingredient per hectare, 14th day after the treatment, wettable powder, criteria of Table 138
Procedure, shortened: as §3

[8] = system: Echinochloa crus-galli (L.) P. Beauv. var. crus-galli; assay: as above; settings: 1000 g of the active ingredient per hectare, 14th day after the treatment, wettable powder, criteria of Table 138
Procedure, shortened: as §3

Compound	Herbicidal effects index, Monochoria vaginalis (Burm. f.) Presl var. plantaginea (Roxb.) Solms-Laub. [1]	Herbicidal effects index, Scirpus juncoides Roxb. var. ohwianus. T. Koyama [2]	Herbicidal effects index, Echinochloa oryzicola Vasing [3]	herbicidal effect (index) on Abutilon theophrasti medicus [4]	herbicidal effect (index) on Amaranthus viridis L. (Amaranthus viridis L. [5])	herbicidal effects on Abutilon theophrasti medicus [6]	herbicidal effects on Amaranthus viridis L. (Amaranthus viridis L. [7])	herbicidal effects on Echinochloa crus-galli (L.) P. Beauv. var. crus-galli [8]
O=C1CCCC(O)=C1C(=O)c1nc2cccnc2n(Cc2cccc(C(F)(F)F)c2)c1=O [III-118]	5	5	5	5	5	5	5	5
COc1ccccc1Cn1c(=O)c(C(=O)C2=C(O)CCCC2=O)nc2cccnc21 [III-120]	5	5	5	4	5	5	5	5
CC(c1ccccc1)n1c(=O)c(C(=O)C2=C(O)CCCC2=O)nc2cccnc21 (stereo not shown) [III-130]	5	5	5	5	5	5	5	5
CC(CCn1c(=O)c(C(=O)C2=C(O)CCCC2=O)nc2cccnc21)=C(F)F [III-232]	5	5	5	5	5	5	5	5
O=C1CCCC(O)=C1C(=O)c1nc2cccnc2n(Cc2ccccc2OC(F)F)c1=O [III-234]	5	5	5	5	5	5	5	5
O=C1CCCC(O)=C1C(=O)c1nc2cccnc2n(-c2ccccc2)c1=O [IV-1, 2-(2-hydroxy-6-oxo-1-cyclohexenecarbonyl)-4-phenyl-pyrido[2,3-b]pyrazin-3(4H)-one]	5	5	5	5	5	5	5	5
CC1(C)CCC(=O)C(C(=O)c2nc3cccnc3n(-c3ccccc3)c2=O)=C1O [IV-2]	5	5	5	5	5	5	5	5
CC1(C)CC(=O)C(C(=O)c2nc3cccnc3n(-c3ccccc3)c2=O)=C(O)C1 [IV-3]	5	5	5	5	5	5	5	5
O=C(C1=C(O)C2CCC(C2)C1=O)c1nc2cccnc2n(-c2ccccc2)c1=O (stereo not shown) [IV-4]	5	5	5	5	5	5	5	5
O=C1CCCC(O)=C1C(=O)c1nc2cccnc2n(-c2ccccc2F)c1=O [IV-6]	5	5	4	5	5	5	5	4
O=C1CCCC(O)=C1C(=O)c1nc2cccnc2n(-c2cccc(F)c2)c1=O [IV-7]	5	5	5	5	5	5	5	5
O=C1CCCC(O)=C1C(=O)c1nc2cccnc2n(-c2ccc(F)cc2)c1=O [IV-8]	5	5	5	5	5	5	5	5
O=C1CCCC(O)=C1C(=O)c1nc2cccnc2n(-c2ccccc2Cl)c1=O [IV-9]	5	5	5	5	5	5	5	5
O=C1CCCC(O)=C1C(=O)c1nc2cccnc2n(-c2cccc(Cl)c2)c1=O [IV-11]	5	5	5	5	5	5	5	5
